According to patent US9993002B2, “1,2,3-thiadiazol-5yl-urea derivatives, use thereof for regulating plant senescence and preparations containing these derivatives” (USTAV EXPERIMENTALNI BOTANIKY AV CR, V.V.I., priority 2014, dated 2018):

Legend:
winter oilseed rape = test: Field experiment, winter oilseed rape, foliar spray; format: in vivo; details: 25 μM foliar spray, BBCH 50
Protocol: (§1) All field experiments were done according to criteria for Good Experimental Practices. Six repetitions (10 m^2 each) were used per one variant. Field trials were not treated by growth regulators and fungicides, except of applied compound 1-furfuryl-[1,2,3]thiadiazol-5-yl-urea. N-furfuryl-N′-1,2,3-thiadiazol-5-yl-urea was applied once at the precise time (extension growth BBCH 50), by foliar spray at a concentration of 25 μM. For each variant at least 50 plants were used to obtain morphology parameters. Statistical evaluation was executed in stat. program PAST v. 2.17c.

spring barley = test: Field experiments, spring barley, years 2014 and 2015, foliar spray; format: in vivo
Protocol: as §1
All field experiments were done according to criteria for Good Experimental Practices as described in example 17. N-furfuryl-N′-1,2,3-thiadiazol-5-yl-urea was applied once at the precise time (extension growth BBCH 50), by foliar spray at a concentration of 25 μM in a year 2014 and at a concentration of 5 μM in a year 2015. For each variant at least 50 plants were used to obtain morphology parameters. Statistical evaluation was executed in stat. program PAST v. 2.17c.

[1] = system: detached leaf segments of Triticum aestivum cv. Hereward; test: Senescence bioassay on wheat leaf segments in dark conditions; details: Triticum aestivum, foliar; dark, 96 h, 25° C., chlorophyll absorbance 665 nm; read-out: Senescence bioassay (IC50)
Protocol: (§2) Seeds of winter wheat, Triticum aestivum cv. Hereward, were washed under running water for 24 hours and then sown on perlite soaked with Hogland's solution. They were placed in the growth chamber at 25° C. with a 16/8 h light period at 50 μmol·m^−2·s^−1. After 7 days, the first leaf was fully developed and the second leaf had started to grow. A tip section of the first leaf, approximately 4 cm long, was removed from 4 seedlings and trimmed slightly to a combined weight of 100 mg. The basal ends of the four leaf tips were placed into the 96-wells plate containing 150 μL of the tested derivative solution each. The entire plate was inserted into a plastic box lined with paper tissues soaked in distilled water to prevent leaf sections from drying out. After 96 h incubation in the dark at 25° C., the leaves were removed and chlorophyll extracted by heating at 80° C. for 10 min in 5 mL of 80% ethanol (v/v). The sample volume was then restored to 5 mL by the addition of 80% ethanol (v/v). The absorbance of the extract was recorded at 665 nm. In addition, chlorophyll extracts from fresh leaves and leaf tips incubated in deionised water were measured. The results are means of five replicates and the entire test was repeated at least twice. […] The compounds to be tested were dissolved in dimethylsulfoxide (DMSO) and the solution brought up to 10^−3 M with distilled water. […] The IC50 values were determined for standard (BAP) and novel tested compounds.

[2] = system: detached leaf segments of Triticum aestivum cv. Hereward; test: Senescence bioassay on wheat leaf segments in dark/light conditions; details: foliar, 168 h, dark/light 8/16, 22° C., 7 days, read-out: Senescence bioassay (IC50)
Protocol: as §2
The ability of the novel compounds to retard chlorophyll degradation in detached wheat leaves was tested also in the light conditions. The experiment was performed as described in Example 7 with modifications as follows—the incubation of the leaves with the compounds was done in the dark/light conditions 8/16 (light—100 μmol·m^−2·s^−1) at 22° C. for 7 days. […] The newly prepared substituted 1,2,3-thiadiazol-5-yl urea derivatives of the invention are much stronger anti-senescent compounds in comparison to the BAP in retarding senescence under optimal (dark/light) conditions.

[3] = system: detached leaves of Triticum aestivum cv. Hereward; test: Membrane lipid peroxidation (MDA, TBA method) in detached wheat leaves in the dark; details: four days in the dark
Protocol: A typical symptom associated with senescence as a direct consequence of increased reactive oxygen species is membrane lipid peroxidation which produces malondialdehyde (MDA). Therefore the levels of MDA, a decomposition product of lipid peroxidation, were measured in detached wheat leaves that were exposed to the prepared novel derivatives or BAP for four days in the dark as described in Example 7. MDA levels were measured using a thiobarbituric acid (TBA) method. In detail, 100 mg of fresh plant material was homogenized by high speed shaking in a ball mill (MM301, Retsch, Germany) with 1 mL of 70% methanol. The crude extract was centrifuged at 10,000×g for 5 min, and 100 μL aliquot of supernatant was vortexed with 100 μL of 0.5% (w/v) TBA containing 0.1% (w/v) trichloroacetic acid, and the resulting solution was then incubated for 30 min at 95° C. The samples were quickly cooled on ice and centrifuged for 5 min at 1000 g. The absorbance of supernatant was measured at 532 nm with background subtraction at 600 nm and the amount of MDA-TBA complex was calculated from the coefficient of absorbance 155 mM^−1 cm^−1.

[4] = system: Arabidopsis thaliana (wild-type Col-0); test: Root growth and lateral root formation of Arabidopsis; format: in vivo; details: 10 nM, two weeks after transfer
Protocol: To investigate in vivo effect of the new derivatives on the root growth and development, seeds of Arabidopsis thaliana (wild-type Col-0) were surface sterilized and sown on vertical plates on half-strength Murashige-Skoog medium (supplied with 0.1% sucrose and 6 g/L phytagel) containing 10 nM BAP or 10 nM 1,2,3-thiadiazol-5-yl-urea derivative, or 0.01% DMSO (solvent control). After vernalization (4 days in the dark, 4° C.) plates were transferred into the growth chamber (22° C., 16/8 light/dark). Two weeks after transfer, seedlings were photographed and root elongation and lateral root formation was scored using Scion image software (Scion Corp., Frederick, Md., USA). At least 40 plants were measured for each treatment.

[5] = Toxicity towards human skin fibroblasts (Calcein AM assay); format: cell-based
Protocol: Cytotoxicity of the compounds to human skin fibroblasts (BJ cell line) was determined in a standard Calceinovém AM test. Cells were maintained in plastic tissue culture flasks and grown in Dulbecco's modified Eagle's medium for cell culture (DMEM) at 37° C. in 5% CO2 and 100% humidity. Cells were placed into 96-well microtiter plates (Nunc, Denmark) and after 12 hours pre-incubation, the tested compound was added to a final concentration ranging from […]. Cells were incubated for 72 hours. At the end of incubation period Calcein AM was added in PBS to a final concentration of […]. After 1 hour of incubation fluorescence was measured at 485/538 nm (ex/em wavelength) using Fluoroskan Ascent (Labsystems, Finland). IC50 values (the concentration causing reduction of calcein AM conversion to 50%) were calculated from the curves obtained. All experiments were repeated four times with a maximum deviation of 15%. Due to the limited solubility of substances in water, all the tested compounds were dissolved in DMSO and diluted with water to a final concentration.

wheat leaves = test: Ethylene production (defoliating activity) assay; set-up: species or system Triticum aestivum; details: 10 μM, 96 h in the dark at 25° C.; control 270 (±15)
Protocol: We investigated the effect of the compounds of the invention on ethylene production in wheat leaves. The leaves were obtained as described in Example 8, placed in 5 mL glass vials and immersed at 10 μM solutions of tested compounds of the invention or TDZ. Distilled water was used as a control treatment. After 96 h incubation in the dark at 25° C., 1 mL of air was taken from the vials and content of ethylene in it was determined using gas chromatography with the flame ionization detector (GC-FID) method described by Fišerová et al. (Fišerová H, Kula E, Klemš M, Reinöhl V (2001) Phytohormones as indicators of the degree of damage in birch (Betula pendula). Biológia 56: 405-409).

SMILES: O=C(NCc1ccco1)Nc1cnns1 [N-furfuryl-N′-1,2,3-thiadiazol-5-yl-urea]
- Seed yield, % of control (winter oilseed rape): 120.9%
- WTK, % of control (winter oilseed rape): 110%
- Seed yield, % of control (spring barley; Year 2014, 25 μM foliar spray): 104.8%
- grains per ear, % of control (spring barley; Year 2014, 25 μM foliar spray): 104.6%
- Seed yield, % of control (spring barley; Year 2015, 5 μM foliar spray): 106.8%

SMILES: O=C(NCC1CCCO1)Nc1cnns1 (stereo not drawn) [Compound 75, 1-(tetrahydro-furan-2-yl-methyl)-3-[1,2,3]thiadiazol-5-yl-urea]
- IC50 [1]: 11.2 µM
- IC50 [2]: 0.42 µM
- MDA [3]: 15.2 (±0.7) nmol/g FW
- Lateral root number [4]: 17 (±6)
- Primary root lenght [4]: 44 (±16) mm
- CC50 at 72 h [5]: > 100 µM
- Ethylene produced (wheat leaves): 282 (±19) nL/g FW
